# Columns and labels:
# [1] = biological target: T1, TDG (Homo sapiens, UniProt Q13569); experiment: Inhibition of TDG mismatch repair activity (fluorescent G·U double-stranded DNA probe T1-T2); assay type: biochemical; conditions: TDG 100 nM/L, preincubated with compound 37° C. 30 minutes; probe 30 nM; read-out: Inhibitory activity on TDG mismatch repair IC50
# Description: 14.1 Experimental Determination of Compound's Inhibitory Rate on TDG Mismatch Repair Activity
# (1) A double-stranded DNA probe T1-T2 containing uracil bases was synthesized. The nucleotide sequence of the T1 chain was: 5′-FAM-TAAUGTGAATGGAGCTGAAAT-biotin-3′; The nucleotide sequence of the T2 chain was 5′-ATTTCAGCTCCATTCACGTTA-3′. Using PCR annealing program, the T1 strand and T2 strand were complementary to form a double-stranded DNA probe T1-T2.
# (2) The reaction system and steps for each well of a 96-well plate were as follows: a. TDG (100 nM/L) was mixed with different concentrations of compounds, and the mixture was incubated at 37° C. for 30 minutes. The composition of the reaction buffer was: 20 mM HEPES pH7.5, 100 mM NaCl, 0.2 mM EDTA, 2.5 mM MgCl2; b. The double-stranded DNA probe T1-T2 was added to the mixture to obtain a final volume of 100 μL, with a concentration of 30 nM, and the mixture was incubated at 25° C. for 30 min; c. 1 μL of streptavidin magnetic beads were added to the reaction solution and fully bound the biotin-labeled DNA for 1 hour; d. NaOH was added to the reaction solution to a final concentration of 200 mM, and the mixture was incubated at room temperature for 30 minutes; e. Under the action of a magnetic stand the streptavidin magnetic beads were adsorbed to the tube wall, the supernatant was transferred to a new 96-well plate, and placed in a Tecan microplate reader for fluorescence measurement. The parameter settings were: excitation wavelength 485 nm; emission wavelength 520 nm. A linear curve between fluorescence intensity and TDG concentration was constructed, R^2=0.9968, and the linear range was 0-50 nM/L;
# According to the biological method described in this example, the selected compounds of the present invention were analyzed, and the results are shown in Table 1. Among them, “++” in Table 1 refers to the inhibitory activity for TDG mismatch repair with IC50≤5 μM; “+” refers to the inhibitory activity for TDG mismatch repair with IC50>5 μM.
# [2] = tested on: Lung cancer cell line Calu-1; experiment: Inhibition of the growth of Calu-1 cells (CellTiter-Glo, 72 hours); assay type: cell-based; conditions: Homo sapiens, 72 hours of culturing, read-out: Inhibitory activity on alu-1 cell growth IC50
# Method: 14.2 Experimental Determination of Compound's Inhibitory Rate on the Growth of Calu-1 Cells
# Lung cancer cell line Calu-1 was cultured in 90% McCoy's 5A medium (BI, 01-075-1ACS)+10% fetal bovine serum (Gibco, 10270106), placed in a CO2 incubator (37° C., 5% CO2, 95% air) for culturing. Calu-1 cells were digested with trypsin (Gibco, 12604-021) and seeded in a 384-well plate at a density of 500 cells per well. The medium was 50 μL and it was cultured overnight at 37° C. in an incubator. On the next day, different concentrations of test compounds were added, and the final concentration of DMSO was 0.1%. After 72 hours of culturing, the cells were taken out for test. The cell culture medium from the 384-well plate to be tested was removed, and fresh culture medium premixed with CTG was immediately added: the ratio of the culture medium to CellTiter-Glo® 2.0 reagent (Promega, G9243) was 2:1, 30 ul was added to each well. The plate was shaken at room temperature for 20 minutes, and then a multi-function plate reader (TECAN, Infinite 200 Pro) was used according to the reagent instructions to determine the cell survival.
# According to the biological method described in this example, the selected compounds of the present invention were analyzed, and the results are shown in Table 1. Among them, “++” in Table 1 refers to the inhibitory activity on the growth of calu-1 cells with IC50≤5 μM; “+” refers to the inhibitory activity on the growth of calu-1 cells with IC50>5 μM.
# [3] = biological target: T1, TDG; experiment: TDG inhibitory activity of compounds in cells (caC-cmv-firefly luciferase reporter, HEK 293T TDG KO cells transfected with pCDNA4-TDG); assay type: cell-based; conditions: read-out: Inhibition rate on TDG activity
# Method: Experimental Determination of TDG Inhibitory Activity of Compounds in Cells
# The operation steps of this example are as follows:
# (1) Preparation of Methylation Reporter Plasmid:
# (a) SAM with a stock solution concentration of 32 mM was diluted with ultrapure water to 1600 μM;
# (b) The reaction system was prepared according to the following ratio: 30 μl ultrapure water, 5 μl 10×NEBuffer 2, 5 μl diluted SAM, 1 μg pCpGL-CMV-firefly plasmid, 1 μl SssI methylase (4 U/μl); 50 μl in total, the reaction was carried out at 37° C. for 2 hours;
# (c) The mixture was heated at 65° C. for 20 minutes. Then 0.2% SDS was added, the reaction was carried out at 80° C. for 10 min; and then 1 μl Proteinase K was added, the reaction was carried out at 50° C. for 1 h;
# (d) The methylated plasmid was recovered with Dr. GenTLE® sedimentation aid (TAKARA).
# (2) Preparation of 5fC/5caC pCpGL-CMV-Firefly Reporter Plasmid
# (a) The following 10× reaction system was prepared:
# (b) The reaction system was prepared according to the following ratio:
# (c) The reaction was carried out at 37° C. for one hour;
# (d) 24 μg Tet1 protein was added for the second time and the reaction was continued for one hour;
# (e) SDS was added to a final concentration of 0.5%, 80° C., 10 minutes, then 1 μl Proteinase K was added, 55° C. overnight.
# (f) The treated caC-cmv-firefly plasmid was recovered with Dr. GenTLE® sedimentation aid (TAKARA) and was quantified.
# (3) Using the Luciferase Activity Assay Method to Detect the Inhibitory Rate of Small Molecule Compounds on Intracellular TDG Enzyme Activity
# In a 96-well plate, the reaction system and operation flow of each well were as follows:
# (a) 1 ng caC-cmv-firefly, Ing pCpGL-CMV-Relina and 150 ng pCDNA4-TDG or 150 ng pCDNA4-myc plasmid, were diluted to 75 ul Opti-MEM, mixed well and allowed to stand still for 5 minutes;
# (b) 2 ul transfection reagent (Hieff Trans™ Liposomal transfection Reagent (0.5 ul/well, YEAEEN, Cat #40802)) was diluted in 100 ul Opti-MEM, mixed well and allowed to stand still for 5 minutes;
# (c) 75 ul of (a) and (b) were mixed respectively, and allowed to stand still at room temperature for 20 minutes;
# (d) HEK 293T TDG KO cells were digested with trypsin, the cells were collected and counted, and the suspension cell concentration was adjusted to 4×10^5/ml;
# (e) 50 ul of the mixture (c) was added to each well, and at the same time 100 ul of the diluted cell suspension was added to the same well, and they were mixed well.
# (f) After the cells adhering to the wall, different concentrations of small molecule compounds to be tested were added to each well.
# (g) Incubation was performed in a 37° C. CO2 incubator for 72 hours. The supernatant was removed and the cells were quickly freezed at −80° C.
# (h) Before detecting the luciferase activity, the cells to be tested were removed from −80° C. and allowed to stand still at room temperature for 30 minutes. Following the instructions of Dual-Glo® Luciferase Reagent (PROMEGA), the firefly fluorescence value and Renilla fluorescence value of each well were detected.
# (i) The firefly fluorescence value was divided with the Renilla fluorescence value of each well; 96-well plate Z′ and experimental window was calculated by the ratio of transfected caC-cmv-firefly, pCpGL-CMV-Relina, pCDNA4-TDG plasmid mixture plus DMSO experimental group to transfected caC-cmv-firefly, pCpGL-CMV-Relina, pCDNA4-myc plasmid mixture plus DMSO experimental group, and the relative enzyme activity inhibition rate of each compound was calculated.
# According to the biological method described in this example, the selected compounds of the present invention were analyzed, and the results are shown in Table 2. Among them, “+” in Table 2 refers to the compound's TDG inhibitory activity at a concentration of 10 μM≤25%; “++” refers to the compound's TDG inhibitory activity at a concentration of 10 μM>25%.
# T1 sequence (Q13569 whole entry): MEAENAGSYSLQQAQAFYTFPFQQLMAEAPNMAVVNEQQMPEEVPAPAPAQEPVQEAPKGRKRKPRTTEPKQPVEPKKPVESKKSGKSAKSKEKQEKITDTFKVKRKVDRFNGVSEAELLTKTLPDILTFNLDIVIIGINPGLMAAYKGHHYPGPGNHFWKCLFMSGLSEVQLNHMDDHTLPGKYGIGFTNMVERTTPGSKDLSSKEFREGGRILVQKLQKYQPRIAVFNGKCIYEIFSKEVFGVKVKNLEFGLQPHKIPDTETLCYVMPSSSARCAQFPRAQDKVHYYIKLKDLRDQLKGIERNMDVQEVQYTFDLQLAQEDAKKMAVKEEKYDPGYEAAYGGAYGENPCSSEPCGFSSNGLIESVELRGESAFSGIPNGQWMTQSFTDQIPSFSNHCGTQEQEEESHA
Compound,IC50 [1] [µM],IC50 [2] [µM],inhibition at 10 µM [3] [%]
"O=C(CCN1Cc2ccc([N+](=O)[O-])cc2C1)c1ccc2c(c1)OCCO2 [Compound 2, 1-(2,3-dihydrobenzo[b][1,4]dioxin-6-yl)-3-(5-nitroisoindo1-2-yl)propan-1-one]",≤ 5,≤ 5,< 25
"O=C(CCN1CCC(=O)c2ccccc21)c1ccc2c(c1)OCCO2 [Compound 27, 1-(3-(2,3-dihydrobenzo[b][1,4]dioxin-6-yl)-3-oxopropyl)-2,3-dihydroquinoline-4(1H)-one]",> 5,> 5,< 25
"O=C(CCN1CCC(c2ccc(Br)cc2)C1)c1ccc2c(c1)OCCO2 (stereo not drawn) [Compound 47, 3-(3-(4-bromophenyl)pyrrolidin-1-yl)-1-(2,3-dihydrobenzo[b][1,4]dioxin-6-yl)propan-1-one]",≤ 5,≤ 5,< 25
"O=C(CCN1Cc2ccccc2C1)c1ccc2c(c1)C(=O)CCO2 [Compound 36, 6-(3-(isoindolin-2-yl)propionyl)chroman-4-one]",≤ 5,≤ 5,< 25
"O=C(CCNc1ccc2cnccc2c1)c1ccc2c(c1)OCCO2 [Compound 20, 1-(2,3-dihydrobenzo[b][1,4]dioxin-6-yl)-3-(isoquinolin-6-ylamino)propan-1-one]",> 5,> 5,< 25
"O=C(CN1Cc2ccccc2C1)c1ccc2c(c1)OCCO2 [Compound 32, 1-(2,3-dihydrobenzo[b][1,4]dioxin-6-yl)-2-(isoindolin-2-yl)ethan-1-one]",> 5,> 5,< 25
"O=C(CCN1Cc2ccccc2C1)c1ccc(O)c(O)c1 [Compound 39, 1-(3,4-dihydroxyphenyl)-3-(isoindolin-2-yl)propan-1-one]",> 5,> 5,< 25
"O=C(CCN1CCc2ccccc2C1)c1ccc2c(c1)OCCO2 [Compound 13, 1-(2,3-dihydrobenzo[b][1,4]dioxin-6-yl)-3-(3,4-dihydroisoquinoline-2(1H)-yl)propan-1-one]",≤ 5,≤ 5,< 25
"O=C(CCN1CCCc2ccccc21)c1ccc2c(c1)OCCO2 [Compound 14, 1-(2,3-dihydrobenzo[b][1,4]dioxin-6-yl)-3-(3,4-dihydrouinoline-1(2H)-yl)propan-1-one]",> 5,> 5,< 25
"O=C(CCN1Cc2ccc(-c3ccc(F)cc3)cc2C1)c1ccc2c(c1)OCCO2 [Compound 40, 1-(2,3-dihydrobenzo[b][1,4]dioxin-6-yl)-3-(5-(4-fluorophenyl)isoindolin-2-yl)propan-1-one]",> 5,> 5,< 25
"O=C(CCN1CCN(c2ncccn2)CC1)c1ccc2c(c1)OCCO2 [Compound 19, 1-(2,3-dihydrobenzo[b][1,4]dioxin-6-yl)-3-(4-(pyrimidin-2-yl)piperazin-1-yl)propan-1-one]",> 5,≤ 5,< 25
"COc1ccc2c(c1)CN(CCC(=O)c1ccc3c(c1)OCCO3)C2 [Compound 5, 1-(2,3-dihydrobenzo[b][1,4]dioxin-6-yl)-3-(5-methoxyisoindolin-2-yl)propan-1-one]",≤ 5,≤ 5,< 25
"O=C(CCN1CCc2ccccc2C(O)(c2ccc(F)cc2)C1)c1ccc2c(c1)C(=O)CCO2 (stereo not drawn) [Compound 54, 6-(3-(1-(4-fluorophenyl)-1-hydroxy-1,2,4,5-tetrahydro-3H-benzo[d]azepine-3-yl)propionyl)chroman-4-one]",≤ 5,≤ 5,< 25
"N#Cc1ccc(C2CCN(CCC(=O)c3ccc4c(c3)OCCO4)C2)cc1 (stereo not drawn) [Compound 50, 4-(1-(3-(2,3-dihydrobenzo[b][1,4]dioxin-6-yl)-3-oxopropyl)pyrrolidin-3-yl)benzonitrile]",≤ 5,≤ 5,> 25
"Nc1ccc2c(c1)CN(CCC(=O)c1ccc3c(c1)OCCO3)C2 [Compound 9, 3-(5-aminoisoindolin-2-yl)-1-(2,3-dihydrobenzo[b][1,4]dioxin-6-yl)propan-1-one]",≤ 5,≤ 5,> 25
"O=C(CCN1CCC(c2ccccc2)CC1)c1ccc2c(c1)OCCO2 [Compound 21, 1-(2,3-dihydrobenzo[b][1,4]dioxin-6-yl)-3-(4-phenylpiperidin-1-yl)propan-1-one]",≤ 5,> 5,< 25
"O=C(CCN1Cc2ccc(F)cc2C1)c1ccc2c(c1)OCCO2 [Compound 6, 1-(2,3-dihydrobenzo[b][1,4]dioxin-6-yl)-3-(5-fluoroiso-2-yl)propan-1-one]",≤ 5,> 5,< 25

# Reference: patent US20220213070A1, “COMPOUNDS INHIBITING TDG ACTIVITY” (EPITAS BIOSCIENCES (SHANGHAI) CO., LTD., priority 2019, published 2022)
